Reference: patent US7217722B2 (Kirin Beer Kabushiki Kaisha, priority 2000, dated 2007)
Read-outs that look alike come from different tables or passages of the source.

Experiments:
[1] = test system: spontaneously hypertensive male rats (SHR); experiment: Antihypertensive activity in spontaneously hypertensive rats; assay type: in vivo; details: Rattus norvegicus, po, 30 mg/kg oral, mean ± SEM of 3 to 4 SHRs, read-out: Blood pressure depression, %
Method: This test was carried out as follows. A test compound was dissolved in purified water, or alternatively the test compound was suspended in a 5% aqueous sodium carboxymethylcellulose solution. The solution or the suspension was forcibly administered into the gaster of SHR through an oral probe. The systolic pressure of SHR was measured with a bloodless sphygmometer (BP-98A, Softron Co.) immediately before the administration of the test compound and 3 to 4 hr after the administration of the test compound or 6 to 7 hr after the administration of the test compound. The percentage of blood pressure depression was calculated by the following equation: Antihypertensive activity (%)={(blood pressure before administration of test compound−blood pressure after administration of test compound)/blood pressure before administration of test compound}×100
Each compound was administered at 30 mg/kg, and the antihypertensive activity (%) was expressed in terms of the mean value of 3 to 4 SHRs and SEM (standard error of the mean).
For data with *, the blood pressure was measured 6 to 7 hr after the administration of the test compound, and, for data with no marks, the blood pressure was measured 3 to 4 hr after the administration of the test compound.

[2] = test system: Human-derived histiocyte lymphoma (U937/CCR2); experiment: Leukocyte migration inhibitory activity (MCP-1 induced migration, CHEMOTAXICELL); assay type: cell-based; details: U937/CCR2, MCP-1, 1 hr; for inhibition at 3 µM / inhibition at 30 µM / inhibition at 0.3 µM / inhibition at 1 µM: Homo sapiens, U-937, 1 h, read-out: Migration inhibition (%) ± SEM; for inhibition at 0.3 µM: test compound 0.3 μM; for inhibition at 1 µM: test compound 1 μM
Method: Human-derived histiocyte lymphoma (U937/CCR2), in which mouse-derived CCR2 had been highly expressed, was suspended in a 0.1% BSA-containing RPMI 1640 medium, to which a test compound had been added (5×10^6/ml), and the suspension was incubated for 20 min. A chemical solution (500 μl) (0.1% BSA-containing RPMI 1640 medium DMSO 1%), to which an MCP-1 ligand (1 μM) and the test compound had been added, was added to a 24-well plate. CHEMOTAXICELL was put thereon, and 200 μl of the cell suspension was added to the top layer, followed by migration under 5% carbon dioxide at 37° C. for one hr. The number of cells, which had migrated to the lower chamber, was counted with a particle count analyzer (CDA-500, SYSMEX CORPORATION), and the percentage migration inhibition was calculated by the following equation; Migration inhibition (%)={1−(number of migrated cells in the presence of test compound/number of migrated cells in the absence of test compound)}×100

[3] = target: Rho kinase (fused protein of bovine Rho kinase catalyst region and glutathione S-transferase) (Bos taurus, UniProt Q28021); experiment: Rho kinase inhibitory activity (phosphorylation of S6 231–239 substrate, γ32P-ATP); assay type: biochemical; details: concentration inhibiting substrate phosphorylation by 50%
Method: This permits the substrate to be labeled with the radioisotope.
Thereafter, the substrate was adsorbed to a filter paper. ATP was washed away with a phosphoric acid solution, and the amount of the phosphorylated substrate was then measured with a liquid scintillation counter.

[4] = systolic pressure 3 to 4 hr after administration

Chain of Rho kinase (fused protein of bovine Rho kinase catalyst region and glutathione S-transferase) (Q28021 92-354 limits assumed): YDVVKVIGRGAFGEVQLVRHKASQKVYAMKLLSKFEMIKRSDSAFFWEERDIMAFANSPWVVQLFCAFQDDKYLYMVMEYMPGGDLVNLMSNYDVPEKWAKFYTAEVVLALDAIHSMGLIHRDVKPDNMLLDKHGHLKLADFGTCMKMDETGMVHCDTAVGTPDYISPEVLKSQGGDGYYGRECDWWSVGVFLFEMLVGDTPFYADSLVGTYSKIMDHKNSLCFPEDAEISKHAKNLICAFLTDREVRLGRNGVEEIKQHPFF

Row | Compound | inhibition in vivo at 30 mg/kg [1, 4] [%] | inhibition at 3 µM ([2]; test compound 3 μM) [%] | inhibition at 30 µM ([2]; test compound 30 μM) [%] | IC50 [3] [nM] | further results
1 | FCCCN1CCC(Nc2ccc3[nH]ncc3c2)CC1 [Example 289, N-[1-(3-fluoropropyl)-4-piperidyl]-N-(1H-5-indazolyl)amine] | 30.8 ± 5.7 | – | – | – | –
2 | O=C(NCc1c(F)cccc1Cl)Nc1ccc2c(c1)C(=O)NC2=O [Example 83, N-(2-chloro-6-fluorobenzyl)-N′-(1,3-dioxo-2,3-dihydro-1H-6-isoindolyl)urea] | – | 16.1 ± 9.6 | 92.5 ± 3.3 | 60 | –
3 | Fc1ccc(CN2CCCC(Nc3ccc4[nH]ncc4c3)C2)cc1 (stereo not drawn) [Example 164, N-[1-(4-fluorobenzyl)-3-piperidyl]-N-(1H-5-indazolyl)amine] | 35 ± 4.7 | – | – | 16 | –
4 | CCCN[C@H]1CC[C@@H](Nc2ccc3[nH]ncc3c2)CC1 [Example 243 (syn), N1-(1H-5-Indazolyl)-N4-propyl-1,4-cyclohexanediamine] | 26.4 ± 5 | – | – | – | –
5 | CCCN1CCC(Nc2cccc3cnccc23)CC1 [Example 318, N-(5-isoquinolyl)-N-(1-propyl-4-piperidyl)-amine] | 22.7 ± 5.1 | – | – | – | –
6 | c1cc2[nH]ncc2cc1NC1CCNCC1 [Example 128, N-(1H-5-indazolyl)-N-(4-piperidyl)amine] | – | 2.9 ± 12.3 | 45.9 ± 12.3 | 287 | –
7 | c1cc2[nH]ncc2cc1N[C@H]1CC[C@@H](NC2CC2)CC1 [Example 247 (syn), N1-Cyclopropyl-N4-(1H-5-indazolyl)-1,4-cyclohexanediamine] | 43.3 ± 1.2 | – | – | – | –
8 | FCCN[C@H]1CC[C@@H](Nc2ccc3[nH]ncc3c2)CC1 [Example 246 (syn), N1-(2-Fluoroethyl)-N4-(1H-5-indazolyl)-1,4-cyclohexanediamine] | 37.2 ± 11.7 | – | – | – | –
9 | FCCN[C@H]1CC[C@H](Nc2ccc3[nH]ncc3c2)CC1 [Example 246 (anti), N1-(2-Fluoroethyl)-N4-(1H-5-indazolyl)-1,4-cyclohexanediamine] | 51.4 ± 0.9 | – | – | – | –
10 | FC(F)(F)c1ccc(CN2CCCC(Nc3ccc4[nH]ncc4c3)C2)cc1 (stereo not drawn) [Example 298, N-(1H-5-indazolyl)-N-{1-[4-(trifluoromethyl)-benzyl]-3-piperidyl}amine] | – | – | – | – | inhibition at 0.3 µM [2]: 15.7 ± 9.9%; inhibition in vivo at 30 mg/kg ([1]; systolic pressure 6 to 7 hr after administration (data with *)): 18.9 ± 3.1%
11 | FCCN[C@H]1CC[C@H](Nc2cccc3cnccc23)CC1 [Example 261 (anti), N1-(2-Fluoroethyl)-N4-(5-isoquinolyl)-1,4-cyclohexanediamine] | 47.3 ± 3.6 | – | – | – | –
12 | CC(NC(=O)Nc1ccc2c(c1)C(=O)NC2=O)c1ccc(Br)cc1 (stereo not drawn) [Example 20, N-[1-(4-bromophenyl)ethyl]-N′-(1,3-dioxo-2,3-dihydro-1H-5-isoindolyl)urea] | – | 46.7 ± 19.4 | 95.4 ± 3.4 | 110 | –
13 | FCCCN1CCC(Nc2cccc3cnccc23)CC1 [Example 322, N-[1-(3-fluoropropyl)-4-piperidyl]-N-(5-isoquinolyl)amine] | 41.4 ± 7.4 | – | – | – | –
14 | O=C(NCc1c(Cl)cccc1Cl)Nc1ccncc1 [Example 80, N-(2,6-dichlorobenzyl)-N′-(4-pyridyl)urea] | – | 26 ± 4.7 | 65.1 ± 17.3 | 770 | –
15 | N[C@H]1CC[C@H](Nc2ccc3[nH]ncc3c2)CC1 [Example 248 (anti), N1-(1H-5-Indazolyl)-1,4-cyclohexanediamine] | 18.8 ± 8 | – | – | – | –
16 | c1ccc(CN2CCC(Nc3ccc4[nH]ncc4c3)C2)cc1 (stereo not drawn) [Example 146, N-(1-benzyltetrahydro-1H-pyrrolyl)-N-(1H-5-indazolyl)amine] | – | 45.6 ± 9.5 | 93.9 ± 1.7 | 32 | –

Row | Compound | inhibition in vivo at 30 mg/kg [1, 4] [%] | inhibition at 3 µM ([2]; test compound 3 μM) [%] | inhibition at 30 µM ([2]; test compound 30 μM) [%] | IC50 [3] [nM] | further results
17 | CC(C)C(c1ccccc1)N1CCCC(Nc2ccc3[nH]ncc3c2)C1 (stereo not drawn) [Example 240, N-(1H-5-indazolyl)-N-[1-(2-methyl-1-phenyl-propyl)-3-piperidyl]amine] | 21.1 ± 6.5 | – | – | – | –
18 | c1cc2[nH]ncc2cc1NC1CCN(CC2CC2)CC1 [Example 287, N-[1-(cyclopropylmethyl)-4-piperidyl]-N-(1H-5-indazolyl)amine] | 24.4 ± 6.8 | – | – | – | –
19 | O=C(NCc1c(F)cccc1F)Nc1ccc2c(c1)C(=O)NC2=O [Example 90, N-(2,6-difluorobenzyl)-N′-(1,3-dioxo-2,3-dihydro-1H-5-isoindolyl)urea] | – | – | 78.3 ± 3.2 | 69 | –
20 | c1ccc(CN2CCC(Nc3ccc4[nH]ncc4c3)CC2)cc1 [Example 126, N-(1-benzyl-4-piperidyl)-N-(1H-5-indazolyl)-amine] | 18 ± 3.5 | – | 49.1 ± 4.6 | – | –
21 | Cl.c1ccc(CN2CCCC(Nc3ccc4[nH]ncc4c3)C2)cc1 (stereo not drawn) [Example 21.HCl, N-(1-Benzyl-3-piperidyl)-N(1H-5-indazolyl)amine] | – | – | – | – | Migration inhibition (%) ± SEM ([2]; test compound 3 μM): 83.5 ± 3.3%; Migration inhibition (%) ± SEM ([2]; test compound 30 μM): 99.1 ± 0.4%
22 | O=C(NCc1c(F)cccc1F)Nc1ccc2[nH]ncc2c1 [Example 95, N-(2,6-difluorobenzyl)-N′-(1H-5-indazolyl)urea] | – | 17.1 ± 11.7 | 77.6 ± 6.4 | 85 | –
23 | CCCN1CCC(Nc2ccc3[nH]ncc3c2)CC1 [Example 286, N-(1H-5-indazolyl)-N-(1-propyl-4-piperidyl)-amine] | 23.6 ± 8.6 | – | – | – | –
24 | c1ccc(CN2CCCC(Nc3ccc4[nH]ncc4c3)C2)cc1 (stereo not drawn) [Example 21] | 37 ± 2.5 | – | – | 20 | –
25 | O=C(NCCF)C(c1ccccc1)N1CCCC(Nc2ccc3[nH]ncc3c2)C1 (stereo not drawn) [Example 227, N1-(2-fluoroethyl)-2-[3-(1H-5-indazolylamino)piperidino]-2-phenylacetamide] | 22.2 ± 7.4 | 100.3 ± 0.5 | – | – | –
26 | O=C(NCc1c(F)cccc1Cl)Nc1ccc2[nH]ncc2c1 [Example 102, N-(2-chloro-6-fluorobenzyl)-N′-(1H-5-indazolyl)urea] | – | 6.8 ± 17 | 96.7 ± 1 | 79 | –
27 | CCCN[C@H]1CC[C@@H](Nc2cccc3cnccc23)CC1 [Example 260 (syn)] | 19.6 ± 10.5 | – | – | – | inhibition at 1 µM [2]: 56.5 ± 14.9%
28 | FC(F)(F)CCN1CCC(Nc2ccc3[nH]ncc3c2)CC1 [Example 290, N-(1H-5-indazolyl)-N-[1-(3,3,3-trifluoropropyl)-4-piperidyl]amine] | 17.2 ± 2.9 | – | – | – | –
29 | FCCN[C@H]1CC[C@@H](Nc2cccc3cnccc23)CC1 [Example 261 (syn), N1-(2-Fluoroethyl)-N4-(5-isoquinolyl)-1,4-cyclohexanediamine] | 46.4 ± 4.8 | – | – | – | inhibition at 0.3 µM [2]: 24.2 ± 3.9%; inhibition at 1 µM [2]: 59.4 ± 10.4%
30 | Fc1ccc(CN2CCCC(Nc3ccc4[nH]ncc4c3)C2)c(Cl)c1 (stereo not drawn) [Example 293, N-[1-(2-chloro-4-fluorobenzyl)-3-piperidyl]-N-(1H-5-indazolyl)amine] | – | 93.5 ± 9.9 | – | – | –
31 | FC(F)(F)CCCN1CCCC(Nc2cccc3cnccc23)C1 (stereo not drawn) [Example 273, N-(5-isoquinolyl)-N-[1-(4,4,4-trifluorobutyl)-3-piperidyl]amine] | 30.4 ± 7.3 | – | – | – | –
32 | Brc1ccc(CN2CCC(Nc3ccc4[nH]ncc4c3)CC2)cc1 [Example 22] | – | 34.8 ± 12.4 | 92.9 ± 1.3 | – | –
